Experimental data: patent US20210139435A1, “PROSTAGLANDIN ANALOGS AND USES THEREOF” (Lifex Biolabs, Inc., priority 2019, published 2021)

Key:
[1] = molecular target: ligand-binding domain (LBD) of Nurr1 (Homo sapiens, UniProt P43354); experiment: Binding of prostaglandins to Nurr1-LBD (NMR titration)
From the text: Cyclopentenone prostaglandin's A1/A2 are dehydrated metabolites of their precursors, the cyclopentanone prostaglandins E1/E2. In PGE1/E2, a hydroxyl group is attached to the C11 atom, which is responsible for the covalent attachment between PGA1 and Nurr1. This is evident from the electron density observed between the PGA1/A2's C11 atom (Rajan, S. et al. Nat Chem Biol 16, 876-886 (2020); U.S. patent application Ser. No. 16/334,550) and Nurr1's Cys566 sulphur, a characteristic feature of PGA1/A2 binding. […] Based on these one could conclude that both PGA1 and PGE1 can be used to design analogs, preferably using PGE1 which is better suited for chemic synthesis and modifications as it lacks the reactive C11 site, concealed by the hydroxyl group (Rajan, S. et al. Nat Chem Biol 16, 876-886 (2020)). […] One such is the misoprostol, which enhanced Nurr1's transcription function. Thus, we chose PGE1 and Misoprostol as the candidate molecules to make modification.

Nurr1 = Nurr1 (Homo sapiens, UniProt P43354); experiment: Activation of Nurr1 / Nurr1's transcription function by prostaglandins (stated without method); type: cell-based
[2] = system: 6-OHDA Parkinson's disease model; experiment: 6-OHDA Parkinson's disease model, apomorphine induced rotational behavior, intranasal administration; type: in vivo, C57BL/6 mice; conditions: apomorphine (0.5 mg/kg) induced rotation; daily intranasal 0.2 mg/ml; 6-OHDA mice
Procedure: Mice were randomly divided into […]: Control (n=4); 6-OHDA (6-hydroxydopamine)+(n=7), 6-OHDA+PGE1 (n=8); 6-OHDA+BSC15 (the compound of the present invention) (n=8); 6-OHDA+BSC19 (the compound of the present invention) (n=7).
Week 9-10 C57BL/6 mice were intranasally administered daily with 0.2 mg/ml of compounds to be tested for 3 days before 6-OHDA injection. Stereotaxic surgery was performed by injecting 7.5 μg of 6-OHDA into the left striatum (AP: +0.5 mm, ML: −2.0 mm, VD: −3.5 mm) of the mouse. Compounds to be tested, i.e., PGE1, BSC15 and BSC19 were prepared by double emulsion solvent evaporation of 1:4 molar ratio with 2-hydroxypropyl-β-cyclodextrin. After surgical recovery, the daily intranasal administration continued with a weekly assessment of apomorphine (0.5 mg/kg) induced rotational behavior. Animal care and handling were performed according to the protocol approved by Nanyang Technological University's Institutional Animal Care and Use Committee.

Nurr1, sequence (P43354 whole entry, species assumed): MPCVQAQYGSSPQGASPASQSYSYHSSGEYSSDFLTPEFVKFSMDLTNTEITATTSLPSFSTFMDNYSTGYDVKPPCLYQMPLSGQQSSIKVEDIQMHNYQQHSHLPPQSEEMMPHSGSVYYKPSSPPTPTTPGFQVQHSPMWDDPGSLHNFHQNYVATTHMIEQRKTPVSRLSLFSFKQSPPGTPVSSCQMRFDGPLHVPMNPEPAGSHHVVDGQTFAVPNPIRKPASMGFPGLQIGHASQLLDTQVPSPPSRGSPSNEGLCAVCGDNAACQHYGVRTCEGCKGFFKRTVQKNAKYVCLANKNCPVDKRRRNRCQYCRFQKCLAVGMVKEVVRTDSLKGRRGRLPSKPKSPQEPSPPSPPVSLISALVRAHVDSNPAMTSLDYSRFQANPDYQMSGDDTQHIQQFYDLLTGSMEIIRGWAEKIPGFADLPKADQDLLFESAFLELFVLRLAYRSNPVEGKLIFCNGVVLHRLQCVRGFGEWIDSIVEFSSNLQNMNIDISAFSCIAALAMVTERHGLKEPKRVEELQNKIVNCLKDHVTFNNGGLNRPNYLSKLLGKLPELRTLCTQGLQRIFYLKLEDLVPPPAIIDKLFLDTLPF
ligand-binding domain (LBD) of Nurr1, sequence (P43354 360-595 limits assumed): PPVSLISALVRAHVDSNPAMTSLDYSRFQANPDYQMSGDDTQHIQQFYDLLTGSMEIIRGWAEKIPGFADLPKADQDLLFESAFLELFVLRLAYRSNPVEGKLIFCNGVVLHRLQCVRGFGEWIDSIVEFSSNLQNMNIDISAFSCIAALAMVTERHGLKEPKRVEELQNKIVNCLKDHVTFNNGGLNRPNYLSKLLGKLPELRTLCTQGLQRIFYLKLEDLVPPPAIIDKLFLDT

direct binding to the ligand-binding domain (LBD) of Nurr1 [1]	activation of Nurr1 (Nurr1)	SMILES	binding site on Nurr1-LBD by NMR titration [1]	rotation number [2]
directly bind	activate	CCCCC[C@H](O)/C=C/[C@H]1C=CC(=O)[C@@H]1CCCCCCC(=O)O [PGA1]	interact at same binding site on Nurr1-LBD	–
directly bind	activate	CCCCC[C@H](O)/C=C/[C@H]1C=CC(=O)[C@@H]1C/C=C\CCCC(=O)O [PGA2]	–	–
directly bind	activate	CCCCC[C@H](O)/C=C/[C@H]1[C@H](O)CC(=O)[C@@H]1C/C=C\CCCC(=O)O [PGE2, Prostaglandin E2]	–	–
directly bind	activate	CCCCC[C@H](O)/C=C/[C@H]1[C@H](O)CC(=O)[C@@H]1CCCCCCC(=O)O [PGE1, Prostaglandin E1]	interact at same binding site on Nurr1-LBD	significant reduction
